From patent publication US20060079453A1, “Hla binding peptides and their uses” (priority 2002, published 2006)
No end group written: not given here.

What was measured:
Assay in all cases: biochemical
Assay type in all cases: binding
HLA-A*3301 = HLA-A*3301 (Homo sapiens, UniProt P04439, A270S/D185E/E176V/E277Q/E87N/F33T/G231S/H175R/I121M/I218V/I322F/K168Q/K210R/L300P/L318F/M331R/P217A/Q86R/Q94H/R138Q/T323A/T345S/T97I/V358M/Y195H)
HLA-A*6801 = HLA-A*6801 (Homo sapiens, UniProt P04439, A269V/D185E/E176V/E277Q/E87N/F33Y/G231S/I121M/I166T/I218V/L180W/L300P/L318F/N151K/P208A/P217A/Q86R/R169H/T345S)
HLA-A*1101 = HLA-A*1101 (Homo sapiens, UniProt P04439, A114D/D185E/E176A/F33Y/L180Q/S129P/T187R)
HLA-A*3101 = HLA-A*3101 (Homo sapiens, UniProt P04439, A270S/D185E/E176V/E277Q/F33T/G231S/G80R/H175R/I121M/I218V/I322F/K168Q/L300P/L318F/M331R/P217A/Q94H/R138Q/T323A/T345S/T97I/V358M)
HLA-A*0301 = HLA-A*0301 (Homo sapiens, UniProt P04439)

| Sequence | IC50 (HLA-A*3301) | IC50 (HLA-A*6801) | IC50 (HLA-A*1101) | IC50 (HLA-A*3101) | IC50 (HLA-A*0301) |
| --- | --- | --- | --- | --- | --- |
| ILDLWVYK | 30100 nM | 12100 nM | 320 nM | 13700 nM | – |
| STLPEGPGPGR | 822 nM | 30 nM | – | 28 nM | – |
| QLARQAKQH | 1660 nM | 243 nM | – | 945 nM | 8420 nM |
| FAFTDLTIVY | 131000 nM | 346 nM | 21200 nM | 42100 nM | – |
| KTLGISYGRKK | 23400 nM | 647 nM | – | 91 nM | 52 nM |
| KFSEYRHYCY | 49400 nM | 14600 nM | 7480 nM | 308 nM | – |
| GTRQTRKNRK | 60200 nM | 6000 nM | – | 2490 nM | – |
| ATTDLTIVYR | 1740 nM | 14 nM | 10 nM | 34 nM | – |
| ELFDKDTFFK | 13 nM | 3.6 nM | – | 3680 nM | 144 nM |
| SVYGTTLER | 454 nM | 21 nM | 6.4 nM | – | 28 nM |
| IALLIIPPK | 1400 nM | 1960 nM | 108 nM | – | – |
| LVYSKVRKYR | 49 nM | 31 nM | 619 nM | – | 320 nM |
| VTVKVGGQLK | 46200 nM | 104 nM | 54 nM | – | 206 nM |
| VTVKIGGQLR | 3830 nM | 52 nM | – | – | 19200 nM |
| KILIKIPVTK | 25000 nM | 19600 nM | 60 nM | 1660 nM | – |
| TTRYKYLNK | 652 nM | 2560 nM | 848 nM | – | 117 nM |
| EQRLPLLPK | 987 nM | 1910 nM | 765 nM | – | 1090 nM |
| TVGPGPGPEK | 98200 nM | 23 nM | 17 nM | 10100 nM | – |
| VTGPGPGPVWK | > 103000 nM | – | 24 nM | 13000 nM | 2900 nM |

| Sequence | IC50 (HLA-A*3301) | IC50 (HLA-A*6801) | IC50 (HLA-A*1101) | IC50 (HLA-A*3101) | IC50 (HLA-A*0301) |
| --- | --- | --- | --- | --- | --- |
| AVDLSFFLK | > 27800 nM | 4040 nM | – | 6210 nM | 226 nM |
| LVGPGPGK | > 126000 nM | 598 nM | – | 23900 nM | 1000 nM |
| DSIPHAACHR | 2.2 nM | 27 nM | 853 nM | – | 2770 nM |
| KISEYRHYNY | 35300 nM | 25100 nM | – | – | 42 nM |
| KMGPGPGK | 106000 nM | 4160 nM | – | 1140 nM | 84 nM |
| KVLCDLLIR | 5900 nM | 9050 nM | – | 66 nM | 363 nM |
| TTLEKLTNR | 37 nM | – | 817 nM | 42 nM | 1990 nM |
| RLLSKISEYK | 40000 nM | – | 65 nM | 158 nM | 15 nM |
| FLFTDLRIVYR | 21 nM | 1.4 nM | – | 58 nM | 672 nM |
| LTYRDDFPY | 20200 nM | – | 82 nM | > 71100 nM | 8260 nM |
| ATRDLCIVYR | 44 nM | 28 nM | – | 4.7 nM | 237 nM |
| RFYITTRYK | 98 nM | 17500 nM | – | 15 nM | 1.9 nM |
| RFYSKVSEFK | 4450 nM | 547 nM | – | 30 nM | 27 nM |
| RMYVGGVEH | > 123000 nM | > 28800 nM | 274 nM | – | 3.8 nM |
| EVYKFLFTDLR | 4.3 nM | 11 nM | 602 nM | – | 31200 nM |
| QMAGPGPGFK | 4780 nM | 30 nM | 6.2 nM | – | 9.4 nM |
| FVDLTIVYR | 430 nM | – | 5310 nM | 2380 nM | 29700 nM |
| AVSEIQNNK | 25400 nM | 14 nM | 11 nM | – | 25 nM |
| RFHNIAGHYK | 80 nM | 23 nM | – | 2.6 nM | 25 nM |

| Sequence | IC50 (HLA-A*3301) | IC50 (HLA-A*6801) | IC50 (HLA-A*1101) | IC50 (HLA-A*3101) | IC50 (HLA-A*0301) |
| --- | --- | --- | --- | --- | --- |
| KFLEERVKK | 9740 nM | – | 2230 nM | 30 nM | 5340 nM |
| AVLQDIVLH | 25800 nM | 27000 nM | – | 6310 nM | – |
| FVVQLDIQSTK | 31400 nM | 2.7 nM | 853 nM | – | 3680 nM |
| TVQGPGPGEK | 103000 nM | – | 3.4 nM | 9870 nM | 218 nM |
| NLVYGETLEK | 121 nM | 87 nM | – | 761 nM | 846 nM |
| QMGPGPGNFK | 101000 nM | 63 nM | – | 2680 nM | 49 nM |
| LQMMNVNLQK | 1110 nM | 320 nM | 7.2 nM | – | 25 nM |
| SSPLFNNFYK | 1730 nM | 6.3 nM | 0.7 nM | – | 100 nM |
| SQVSNSDSYK | > 17400 nM | – | 83 nM | 24600 nM | 1660 nM |
| RFEVYQFAFK | 2870 nM | 2440 nM | 611 nM | – | – |
| VTIRIGGQLR | 1350 nM | 16 nM | – | 61 nM | 3190 nM |
| ILYRDCIAY | 44700 nM | > 19600 nM | 1830 nM | – | – |
| PAAYAAQGYK | > 111000 nM | 666 nM | – | 20300 nM | 950 nM |
| LLFYSKVRR | 276 nM | 11 nM | 73 nM | – | 56 nM |
| KFSEYRHYNY | 18400 nM | 1800 nM | – | – | 5820 nM |
| MFQDPQERPRK | 419 nM | – | 8570 nM | 604 nM | 15500 nM |
| KSKFGYGAK | > 123000 nM | > 7630 nM | 596 nM | – | 36 nM |
| SLFGPGPGK | 82300 nM | 36 nM | 2.3 nM | – | 3.4 nM |
| RVLSKISEYR | 197 nM | – | 84 nM | 24 nM | 34 nM |
